From patent US6706734B2, “Arylpiperidinol and arylpiperidine derivatives and pharmaceuticals containing the same” (Daiichi Suntory Pharma Co., Ltd., priority 1996, dated 2004)
Counter-ions that a name gives are not always drawn.

How the values were obtained:
DBA/2N type mice = assay: Audiogenic seizure suppressing effect; type: in vivo; conditions: Mus musculus, ip, 20 min, compound 10 mg/kg, i.p.; audio stimulus after 20 minutes; suppression of average seizure score; read-out: Antiseizure effect (suppression rate %)
Description: Audiogenic Seizure Suppressing Effect
The audiogenic seizure suppressing effect of the compounds was evaluated by the method of Sarro et al. [G. B. De Sarro et al., Br. J. Pharmacol., 93, 247 (1988)]. That is, the compound dissolved in 10% 2-hydroxypropyl-β-cyclodextrin was administered intraperitoneally to DBA/2N type mice (male, 3 weeks old). After 20 minutes, a supersonic washer was used to apply audio stimulus of at least 90 dB for one minute. The wild running (WR), clonic seizures (clonus), tonic seizures (tonus), and respiratory arrest (RA) were observed.

[1] = Acute toxicity after intravenous injection; conditions: mouse, in vivo, ddY mice (male, 6 weeks old), death rate up to 24 hours, read-out: 50% lethal dosage LD50 of acute toxicity
Text: The compound according to the present invention is low in toxicity.

T-type Ca^2+ channel = assay: T-type calcium channel inhibitory effect (whole-cell patch clamp, hippocampal CA1 pyramidal cells); conditions: read-out: T-type Ca^2+ channel inhibitory effect IC50; suppression of peak current after one minute of application; rat hippocampal CA1 pyramidal cells
Description: T-Type Calcium Channel Inhibitory Effect
The hippocampal CA1 pyramidal cells were isolated from Wistar rats (female, 1 week old) according to the method reported by Takahashi et al. [K. Takahashi et al.; J. Pharmacol. Exp. Ther., 256, 169 (1991)] and the T-type calcium current under conditions of a fixed membrane potential was measured using the whole-cell configration of the patch clamp technique. The effects of the compounds were evaluated from the rate of suppression of the peak current after one minute of application using the concentration clamp method.

Sodium channel = assay: Inhibitory effect of veratrizine-induced sodium channel activity (synaptosome membrane potential, Rhodamine 6G); type: biochemical, Wistar rats; conditions: compound 0.1 μM, rat brain synaptozomes, veratridine-induced depolarization
Description: Inhibitory Effect of Veratrizine-induced Sodium Channel Activity
The membrane potential of the synaptozomes prepared from the brain membrane of Wistar rats (male, 10 to 12 weeks old) was measured by the method of Aiuchi et al. (t. Aiuchi et al: Biochimi. Biophys. Acta. 771, 228 (1984)) using a membrane potential sensitive fluorescent dye Rhodamine 6G to evaluate the effects of suppression of the compound on the veratrizine-inducing depolarization response.

Row | Compound | melting point [°C] | inhibition in vivo at 10 mg/kg (DBA/2N type mice) [%] | LD50 at 24 h [1] [mg/kg] | IC50 (T-type Ca^2+ channel) [µM] | Anti-veratridine effect (inhibiting rate %) (Sodium channel) [%] | Anti-veratridine effect (inhibiting rate %) (Sodium channel; 0.1 µM) [%]
1 | OC1(c2ccc(Oc3ccc(F)cc3)cc2)CCN(C/C=C/c2ccccc2)CC1 (as salt: fumarate) | 148 to 150 | – | – | – | – | –
2 | O=C(CN1CCC(O)(c2ccc(Oc3ccc(F)cc3)cc2)CC1)c1ccccc1 (as salt: fumarate) | 50 to 52 | – | – | – | – | –
3 | O[C@H](COc1ccccc1)CN1CCC(O)(c2ccc(Oc3ccc(F)cc3)cc2)CC1 (as salt: fumarate) | 48 to 50 | – | – | – | – | –
4 | OC1(c2ccc(-c3ccccc3)c(F)c2)CCN(C/C=C/c2ccccc2)CC1 [Compound 17, (E)-4-(3-fluoro-4-phenyl)phenyl-1-(3-phenyl-2-propenyl)-4-piperidinol] | – | 88 | 32 | 1.9 | 26.8 | –
5 | OC1(c2ccc(Oc3ccccc3)cc2)CCN(C/C=C/c2ccccc2)CC1 [Compound 34, (E)-4-(4-phenoxy)phenyl-1-(3-phenyl-2-propenyl)-4-piperidinol] | – | 80 | – | 1.7 | 29.9 | –
6 | OC(COc1ccccc1)CN1CCC(O)(c2ccc(Cc3ccc(F)cc3)cc2)CC1 (stereo not shown) [Compound 39, 4-[4-(4-fluorophenyl)methylphenyl]-1-(2-hydroxy-3-phenoxy)propyl-4-piperidinol] | – | 90 | – | 1.3 | – | 18.7
7 | O[C@H](COc1ccccc1)CN1CCC(O)(c2ccc(-c3ccccc3)c(F)c2)CC1 [Compound 42, (S)-4-(3-fluoro-4-phenyl)phenyl-1-(2-hydroxy-3-phenoxy)propyl-4-piperidinol] | – | 72 | – | 0.55 | 21 | –
8 | O[C@@H](COc1ccccc1)CN1CCC(O)(c2ccc(-c3ccccc3)c(F)c2)CC1 [Compound 43, (R)-4-(3-fluoro-4-phenyl)phenyl-1-(2-hydroxy-3-phenoxy)propyl-4-piperidinol] | – | 90 | – | 1.4 | 21.2 | –
